# Measurements from US20080286337A1, “Method of treating a disease in an eye using a scleral lens” (Boston Foundation for Sight, priority 2007, published 2008).
# Like-named read-outs stand apart in the source and are kept apart here.
# Assays:
# [1] = system: corneal neovascularization; experiment: Topical AVASTIN in the scleral lens drug delivery system to treat corneal neovascularization; type: in vivo
# Excerpt: This study using AVASTIN® off-label, topically, to treat corneal neovascularization was repeated using the scleral lens drug delivery system. […] This therapeutic effect was achieved without BAK. Instead, the expanded pre-corneal tear film of the scleral lens drug delivery system provided adequate bioavailability of the drug without exposing the cornea to BAK.
# [2] = system: corneal neovascularization; details: solution of 1% AVASTIN and 0.01% BAK, one drop, four times per day for at least thirty days; no scleral lens; cited from earlier work
substance,measurement,setting,value
bevacizumab [AVASTIN®],therapeutic effect on corneal neovascularization,"[1]; one drop of 1% AVASTIN added to expanded pre-corneal tear film of artificial tears in a scleral lens twice per day, without BAK",achieved a therapeutic effect by thirty days
same,continued benefit after initial therapeutic effect,"[1]; same regimen, the sixty days following the first thirty days",continued benefit over the subsequent sixty days
same,"regression of corneal neovascularization (clinical photos, FIG. 5)",[1]; scleral lens drug delivery system,regression of corneal neovascularization
same,therapeutic effect on corneal neovascularization,[2],Therapeutic effect was reported
